Reference: ChEMBL document CHEMBL1123223, “New effective gonadotropin releasing hormone antagonists with minimal potency for histamine release in vitro” (J Med Chem, 1986)
≈ marks a conversion by molar mass, not a printed value. Each block holds one compound with its values, some of them ahead of it.

Columns and labels:
[1] = species on record: Rattus norvegicus; assay: Compound was evaluated for time course of action on LH secretion in the castrated male rat at a time interval of 19 hr at 125 microg; format: functional
[2] = species on record: Rattus norvegicus; assay: Compound was evaluated for time course of action on LH secretion in the castrated male rat at a time interval of 49 h at 125 microg; format: functional
[3] = species on record: Rattus norvegicus; assay: Compound was evaluated for time course of action on LH secretion in the castrated male rat at a time interval of 49 hr at 25 microg; format: functional
[4] = species on record: Rattus norvegicus; assay: Compound was evaluated for time course of action on LH secretion in the castrated male rat at a time interval of 43 hr at 125 microg; format: functional
[5] = species on record: Rattus norvegicus; assay: Compound was evaluated for time course of action on LH secretion in the castrated male rat at a time interval of 73 hr at 125 microg; format: functional
[6] = species on record: Rattus norvegicus; assay: Compound was evaluated for time course of action on LH secretion in the castrated male rat at a time interval of 0 hr at 125 microg; format: functional
[7] = species on record: Rattus norvegicus; assay: Compound was evaluated for time course of action on LH secretion in the castrated male rat at a time interval of 0 hr at 25 microg; format: functional
[8] = species on record: Rattus norvegicus; assay: Compound was evaluated for time course of action on LH secretion in the castrated male rat at a time interval of 1 hr at 25 microg; format: functional
[9] = species on record: Rattus norvegicus; assay: Compound was evaluated for time course of action on LH secretion in the castrated male rat at a time interval of 73 hr at 25 microg; format: functional
[10] = species on record: Rattus norvegicus; assay: Compound was evaluated for time course of action on LH secretion in the castrated male rat at a time interval of 1 hr at 125 microg; format: functional
[11] = species on record: Rattus norvegicus; assay: Compound was evaluated for time course of action on LH secretion in the castrated male rat at a time interval of 19 hr at 25 microg; format: functional
[12] = species on record: Rattus norvegicus; assay: Compound was evaluated for time course of action on LH secretion in the castrated male rat at a time interval of 67 hr at 125 microg; format: functional
[13] = species on record: Rattus norvegicus; assay: Compound was evaluated for time course of action on LH secretion in the castrated male rat at a time interval of 67 hr at 25 microg; format: functional
[14] = species on record: Rattus norvegicus; assay: Compound was evaluated for time course of action on LH secretion in the castrated male rat at a time interval of 43 hr at 25 microg; format: functional
[15] = species on record: Rattus norvegicus; assay: GnRH antagonistic dose of compound for 5 rats ovulation out of total 10 using anti-ovulatory assay in experiment 1; format: functional
[16] = species on record: Rattus norvegicus; assay: Compound was tested in vitro for its ability to inhibit histamine release from rat mast cells.; format: functional; conditions: read-out: ED50 (the source's name)
[17] = species on record: Rattus norvegicus; assay: GnRH antagonistic dose of compound for 0 rats ovulation out of total 10 using anti-ovulatory assay in experiment 2; format: functional
[18] = target: T1, Gonadotropin-releasing hormone receptor (Rattus norvegicus) (UniProt P30969); assay: Inhibition of GnRH-mediated LH secretion by cultured pituitary cells; format: functional, cell-based; conditions: Pituitary gland cell
T1 sequence (whole entry): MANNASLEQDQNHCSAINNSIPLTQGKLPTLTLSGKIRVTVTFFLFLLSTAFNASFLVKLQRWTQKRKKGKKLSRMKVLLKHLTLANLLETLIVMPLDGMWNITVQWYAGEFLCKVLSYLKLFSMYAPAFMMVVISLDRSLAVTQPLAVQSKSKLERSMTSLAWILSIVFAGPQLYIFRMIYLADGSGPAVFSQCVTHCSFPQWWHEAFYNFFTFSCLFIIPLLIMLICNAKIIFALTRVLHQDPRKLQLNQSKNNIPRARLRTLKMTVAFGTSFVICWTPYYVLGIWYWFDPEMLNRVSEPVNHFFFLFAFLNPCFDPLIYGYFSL

[19] = species on record: Rattus norvegicus; assay: Dissociation constant was determined in rat pituitary cells.; format: cell-based; conditions: pituitary gland cell
[20] = species on record: Rattus norvegicus; assay: GnRH antagonistic dose of compound for 8 rats ovulation out of total 10 using anti-ovulatory assay; format: functional
[21] = species on record: Rattus norvegicus; assay: GnRH antagonistic dose of compound for 11 rats ovulation out of total 15 using anti-ovulatory assay; format: functional
[22] = species on record: Rattus norvegicus; assay: GnRH antagonistic dose of compound for 7 rats ovulation out of total 20 using anti-ovulatory assay; format: functional
[23] = species on record: Rattus norvegicus; assay: GnRH antagonistic dose of compound for 1 rats ovulation out of total 10 using anti-ovulatory assay in experiment 1; format: functional

SMILES: CC(=O)N1CCC[C@@H]1C(=O)N[C@H](Cc1ccc(F)cc1)C(=O)N[C@H](Cc1c[nH]c2ccccc12)C(=O)N[C@@H](CO)C(=O)N[C@@H](CCCN=C(N)N)C(=O)N[C@H](Cc1ccc2ccccc2c1)C(=O)N[C@@H](CC(C)C)C(=O)N[C@@H](CCCN=C(N)N)C(=O)N1CCC[C@H]1C(=O)NCC(N)=O
LH level [1]: 3 ng/mL | LH level [2]: 2.5 ng/mL | LH level [3]: 5.46 ng/mL | LH level [4]: 2.63 ng/mL | LH level [5]: 4.58 ng/mL | LH level [6]: 12.47 ng/mL | LH level [7]: 10.25 ng/mL | LH level [8]: 5.68 ng/mL | LH level [9]: 9.15 ng/mL | LH level [10]: 6.17 ng/mL | LH level [11]: 2.78 ng/mL | LH level [12]: 2.74 ng/mL | LH level [13]: 8.23 ng/mL | LH level [14]: 4.38 ng/mL

SMILES: COc1ccc(C(=O)CC[C@@H](NC(=O)[C@H](Cc2ccc(O)cc2)NC(=O)[C@H](CO)NC(=O)[C@@H](Cc2cccnc2)NC(=O)[C@@H](Cc2ccc(Cl)cc2)NC(=O)[C@H]2CCCN2C(C)=O)C(=O)N(C)[C@@H](CC(C)C)C(=O)N[C@@H](CCCN=C(N)N)C(=O)N2CCC[C@@H]2C(=O)N[C@H](C)C(=O)O)cc1
Relative potency [18]: 0.13 | Kd [19]: 310 pM

SMILES: COc1ccc(C(=O)CC[C@@H](NC(=O)[C@H](CCCN=C(N)N)NC(=O)[C@H](CO)NC(=O)[C@@H](Cc2cccnc2)NC(=O)[C@@H](Cc2ccc(Cl)cc2)NC(=O)[C@@H](Cc2ccc3ccccc3c2)NC(C)=O)C(=O)N[C@@H](CC(C)C)C(=O)N[C@@H](CCCN=C(N)N)C(=O)N2CCC[C@H]2C(=O)NCC(=O)O)cc1
ED100 [23]: 1 µg/kg | EC50 [16]: 3.2 µg/mL (≈ 2.17 µM) | ED100 [17]: 2.5 µg/kg | Kd [19]: 600 pM

Second part, led by results:

EC50 [16]: 2.9 µg/mL (≈ 2.05 µM) | Relative potency [18]: 0.91
SMILES: CC(=O)N[C@H](Cc1ccc2ccccc2c1)C(=O)N[C@H](Cc1ccc(Cl)cc1)C(=O)N[C@H](Cc1cccnc1)C(=O)N[C@@H](CO)C(=O)N[C@@H](CCCN=C(N)N)C(=O)N[C@H](Cc1cccnc1)C(=O)N[C@@H](CC(C)C)C(=O)N[C@@H](CCCN=C(N)N)C(=O)N1CCC[C@H]1C(=O)N[C@H](C)C(=O)O
ED100 [15]: 0.5 µg/kg | ED100 [17]: 1 µg/kg | Kd [19]: 240 pM

EC50 [16]: 4.6 µg/mL (≈ 3.07 µM)
SMILES: COc1ccc(C(=O)CC[C@@H](NC(=O)[C@H](CCCN=C(N)N)NC(=O)[C@H](CO)NC(=O)[C@@H](Cc2cccnc2)NC(=O)[C@@H](Cc2ccc(Cl)cc2)NC(=O)[C@@H](Cc2ccc3ccccc3c2)NC(C)=O)C(=O)N(C)[C@@H](CC(C)C)C(=O)N[C@@H](CCCN=C(N)N)C(=O)N2CCC[C@H]2C(=O)N[C@H](C)C(N)=O)cc1
ED100 [20]: 1 µg/kg

EC50 [16]: 3.7 µg/mL (≈ 2.59 µM)
SMILES: CC(=O)N[C@H](Cc1ccc2ccccc2c1)C(=O)N[C@H](Cc1ccc(Cl)cc1)C(=O)N[C@H](Cc1cccnc1)C(=O)N[C@@H](CO)C(=O)N[C@@H](CCCN=C(N)N)C(=O)N[C@H](Cc1ccc(O)cc1)C(=O)N[C@@H](CC(C)C)C(=O)N[C@@H](CCCN=C(N)N)C(=O)N1CCC[C@H]1C(=O)N[C@H](C)C(N)=O
ED100 [21]: 0.5 µg/kg

EC50 [16]: 2.7 µg/mL (≈ 1.8 µM) | Relative potency [18]: 1.16
SMILES: CC(=O)N[C@H](Cc1ccc2ccccc2c1)C(=O)N[C@H](Cc1ccc(Cl)cc1)C(=O)N[C@H](Cc1cccnc1)C(=O)N[C@@H](CO)C(=O)N[C@@H](CCCN=C(N)N)C(=O)N[C@H](Cc1c[nH]c2cc([N+](=O)[O-])ccc12)C(=O)N[C@@H](CC(C)C)C(=O)N[C@@H](CCCN=C(N)N)C(=O)N1CCC[C@H]1C(=O)N[C@H](C)C(=O)O
ED100 [22]: 0.5 µg/kg | Kd [19]: 630 pM

EC50 [16]: 39 µg/mL (≈ 28.5 µM)
SMILES: CC(=O)N1CCC[C@@H]1C(=O)N[C@H](Cc1ccc(F)cc1)C(=O)N[C@H](Cc1c[nH]c2ccccc12)C(=O)N[C@@H](CO)C(=O)N[C@@H](Cc1ccc(O)cc1)C(=O)N[C@H](Cc1c[nH]c2ccccc12)C(=O)N[C@@H](CC(C)C)C(=O)N[C@@H](CCCN=C(N)N)C(=O)N1CCC[C@H]1C(=O)NCC(=O)O
